Results from US20120276200A1, “FORMULATIONS OF QUINOLINONES” (priority 2005, published 2012).

Experiment: Hygroscopicity, DVS experiment (moisture induced weight change)
Assay type: physicochemical
Experimental: All DVS measurements were carried out at 2.5% relative humidity change per hour.

| SMILES | Moisture induced % weight change (55% RH, listed as Lactate trial 3) [%] | Water uptake in DVS experiment (RH above 90%, not completely reversible) | Hygroscopicity in DVS experiment (below about 80% RH) | Moisture induced % weight change (55% RH, listed as Malate trial 3) [%] | Moisture induced % weight change (95% RH, listed as Malate trial 3) [%] |
| --- | --- | --- | --- | --- | --- |
| CC(O)C(=O)O.CN1CCN(c2ccc3nc(-c4c(N)c5c(F)cccc5[nH]c4=O)[nH]c3c2)CC1 [Lactate trial 1, Lactic Acid salt of 4-Amino-5-fluoro-3-[6-(4-methyl-piperazin-1-yl)-1H-benzimidazol-2-yl]-1H-quinolin-2-one] | 0.08 | significant water uptake | not hygroscopic |  |  |
| CN1CCN(c2ccc3nc(-c4c(N)c5c(F)cccc5[nH]c4=O)[nH]c3c2)CC1.O=C(O)CC(O)C(=O)O [Malate trial 1] |  |  |  | 0.08 | 0.30 |
